In patent US12022829B2, “Water-dispersible fine particle” (TOYOBO CO., LTD., priority 2018, dated 2024):

What was measured:
Type in all cases: cell-based
P. fluorescens biofilm [1] = experiment: Anti-biofilm coat test using fine particle suspension (Test example 2); conditions: water washing, cultivation 30° C. 48 hours, CV staining
Procedure: (§1) A test piece was taken out after the cultivation and washed using normal saline, and a biofilm amount adhered on the test piece surface was measured. The biofilm amount was measured by CV (crystal violet) staining method. Specifically, a test piece was immersed in 0.1 wt % CV aqueous solution for 30 minutes, an excessive CV was washed out using water, an extraction from the stained region was carried out using 98% ethanol, and an absorbance of 500 nm was measured.
P. fluorescens, which is a gram-negative bacillus having high productivity of a biofilm, was used for evaluating an anti-biofilm property. A dried standard product of P. fluorescens was obtained as NBRC No. 14160 and recovered by the following method. DAIGO growth medium 802 (8.4 g) manufactured by Wako Pure Chemical Corporation and 300 mL of purified water were weighed and added into a beaker, and the mixture was stirred at room temperature for about 30 minutes for dispersion. A recovering liquid was sterilized by an autoclave, 0.2 mL of the recovering liquid was taken out using a micropipette and added into an ample of a dried standard product of P. fluorescens, and the mixture was stirred. Separately, 25 mL of SCD broth (Soybean-Casein Digest Broth) manufactured by Wako Pure Chemical Corporation was added in a flask, and […] of the above P. fluorescens suspension was subsequently added thereto. The bacterium was cultivated at 30° C. and a velocity of 150 rpm in a constant temperature incubator shaker for 24 hours for cultivation. After the cultivation, the bacterium was added in 80% glycerol, and the bacterium liquid was preserved at −80° C.
A fine particle suspension of ε-PL was prepared by using the GPE-ized polycarboxylic acid of Production examples 1 to 5 as a test sample liquid for an anti-biofilm coat. A fine particle suspension was prepared by mixing the both of the aqueous solutions of the GPE-ized polycarboxylic acid and ε-PL so that a concentration of the GPE-ized polycarboxylic acid in the fine particle suspension became 0.5 wt % and a concentration of ε-PL became 0.045 wt %. For comparison, a simple ε-PL aqueous solution, an IPMP (4-isopropyl-3-methylphenol, manufactured by Wako Pure Chemical Corporation) ethanol solution and a silver nano particle aqueous suspension manufactured by JAPAN ION Corporation having concentrations of 0.045 wt % were respectively produced. […] The test piece coated with each drug was stirred at 25° C. and 350 rpm for 1 minute for washing with water as a water section environment. The test piece after the water washing was immersed in a broth containing the bacterium liquid prepared in Test example 1, and a biofilm was formed by a cultivation at 30° C. for 48 hours. A concentration was adjusted to 10 cfu/mL by diluting the P. fluorescens liquid with SCD broth. The test piece was taken cut after the cultivation, washed using normal saline, and an amount of a biofilm adhered on the surface of the test piece was measured. A biofilm inhibition rate was calculated by the following formula: Biofilm inhibition rate (%)=(measurement value of untreated test piece−measurement value of test piece coated with test liquid)/(measurement value of untreated test piece)×100

P. fluorescens biofilm [2] = experiment: Biofilm inhibition test after immersion in (contact with) drug (Test example 4); conditions: then re-cultivation in SCD broth 30° C. 24 hours, CV staining
Procedure: as §1
In a microplate of Test example 3 in which a biofilm was formed, 1 mL of each test drug was added for an immersion for 1 minute, 10 minutes, 30 minutes or 60 minutes. The test drug was removed after the contact time, and the residue was washed using 1 mL of normal saline two times. In the microplate, 1 mL of SCD broth was added for a cultivation at 30° C. for 24 hours to form a biofilm again and to evaluate a re-inhibition property of a biofilm. An amount of a biofilm was measured after the cultivation. An amount of a biofilm was measured by CV staining method described in Test example 2. A biofilm inhibition rate was calculated by the following formula: Biofilm inhibition rate (6)=(measurement value of untreatment−measurement value after immersion in test liquid)/(measurement value of untreatment)×100

P. fluorescens biofilm [3] = experiment: Biofilm removing effect test after immersion in drug (Test example 3); conditions: 1-week biofilm in 48-well microplate, CV staining
Procedure: as §1
SCD broth containing the bacterial liquid of P. fluorescens having a concentration of 10^6 cfu/mL prepared in Test example 1 was added to 48-well microplate manufactured by Sumitomo Bakelite Co., Ltd. for cultivation at 30° C. for 1 week to form a biofilm in the plate. The bacterial liquid as supernatant was removed, and the residue was rinsed using a sterilized normal saline and dried. The test liquid was prepared by a similar method to Test example 2. Specifically, a fine particle suspension was prepared so that a concentration of GPE-ized polycarboxylic acid became 0.5 wt % and a concentration of ε-PL became 0.04 wt % in the suspension. In a microplate in which a biofilm was formed, 1 mL of each test liquid was added to immerse the biofilm for 1 minute, 10 minutes, 30 minutes or 60 minutes to evaluate a biofilm removing effect at every immersion (contact) time. The test drug was removed after a lapse of the immersion (contact) time, and the residue was immediately washed using 1 mL of normal saline two times and dried to measure a biofilm amount by CV staining method described in Test example 2. A biofilm removing rate was calculated by the following formula: Biofilm removing rate (%)=(measurement value of untreatment−measurement value after immersion in test liquid)/(measurement value of untreatment)×100

[4] = test system: P. fluorescens in biofilm; experiment: Biofilm bactericidal property test (Test example 5); conditions: untreated 40000 cfu/well
Procedure: A number of a viable bacterium in the biofilm was measured by adding 1 mL of normal saline to the surface material on which a biofilm was adsorbed, destroying the biofilm using a ultrasonic washing machine, collecting an elution liquid, diluting the elution liquid from 10^2 to 10^8 using normal saline, inoculating the diluted solution into petri Film™ broth manufactured by 3M, performing cultivation at 30° C. for 1 week, and counting colonies.
After the test drug was contacted with a biofilm, a bactericidal property against the bacterium in the biofilm was tested. In a microplate of Test example 3 in which a biofilm was formed, 1 mL of each test drug was added for an immersion for 1 minute, 10 minutes, 30 minutes and 60 minutes. The test drug was removed after the lapse of contact time, and the reside was immediately washed using 1 mL of normal saline two times. In the microplate, 1 mL of normal saline was added. The bacterium was eluted in the normal saline by treating the mixture for 1 minute using an ultrasound bath to destroy the biofilm. The eluate was diluted from 10^2 to 10^8 using sterilized normal saline, and inoculated to Petrifilm™ broth manufactured by 3M for a cultivation at 30° C. for 1 week. Then, the number of colonies was counted and the number of viable bacteria was measured. The number of viable bacteria was 40000 cfu/well in the untreatment case; on the one hand, it was confirmed that the bacteria number in a biofilm was reduced by an immersion in the fine particle suspension in Examples 37 to 39 as the number of viable bacteria was reduced.

[5] = adhesion amount 0.01 μg/cm^2 on polyvinyl chloride test piece
[6] = adhesion amount 0.02 μg/cm^2 on polyvinyl chloride test piece
[7] = adhesion amount 0.04 μg/cm^2 on polyvinyl chloride test piece
[8] = adhesion amount 0.08 μg/cm^2 on polyvinyl chloride test piece
[9] = adhesion amount 0.12 μg/cm^2 on polyvinyl chloride test piece

Cc1cc(O)ccc1C(C)C [compound 17, 4-isopropyl-3-methylphenol]
Biofilm inhibition rate (P. fluorescens biofilm [1]; [5]): 41%

Cc1cc(O)ccc1C(C)C [compound 18, 4-isopropyl-3-methylphenol]
Biofilm inhibition rate (P. fluorescens biofilm [1]; [6]): 48%

Cc1cc(O)ccc1C(C)C [compound 19, 4-isopropyl-3-methylphenol]
Biofilm inhibition rate (P. fluorescens biofilm [1]; [7]): 57%

Cc1cc(O)ccc1C(C)C [compound 20, 4-isopropyl-3-methylphenol]
Biofilm inhibition rate (P. fluorescens biofilm [1]; [8]): 66%

Cc1cc(O)ccc1C(C)C [compound 21, 4-isopropyl-3-methylphenol]
Biofilm inhibition rate (P. fluorescens biofilm [1]; [9]): 75%

Cc1cc(O)ccc1C(C)C [compound 24, 4-isopropyl-3-methylphenol]
Removal rate of biofilm every contact time (Test example 4) (P. fluorescens biofilm [2]; contact time 1 min): 22% | Removal rate of biofilm every contact time (Test example 4) (P. fluorescens biofilm [2]; contact time 10 min): 33% | Removal rate of biofilm every contact time (Test example 4) (P. fluorescens biofilm [2]; contact time 30 min): 37% | Removal rate of biofilm every contact time (Test example 4) (P. fluorescens biofilm [2]; contact time 60 min): 57% | Removal rate of biofilm every contact time (Test example 3) (P. fluorescens biofilm [3]; contact time 1 min): 60% | Removal rate of biofilm every contact time (Test example 3) (P. fluorescens biofilm [3]; contact time 10 min): 56% | Removal rate of biofilm every contact time (Test example 3) (P. fluorescens biofilm [3]; contact time 30 min): 61% | Removal rate of biofilm every contact time (Test example 3) (P. fluorescens biofilm [3]; contact time 60 min): 52%

Cc1cc(O)ccc1C(C)C [compound 27, 4-isopropyl-3-methylphenol]
Number of viable bacteria in biofilm every contact time ([4]; contact time 1 min): 1900 cfu/well | Number of viable bacteria in biofilm every contact time ([4]; contact time 10 min): 800 cfu/well | Number of viable bacteria in biofilm every contact time ([4]; contact time 30 min): 800 cfu/well | Number of viable bacteria in biofilm every contact time ([4]; contact time 60 min): 800 cfu/well

ε-poly-L-lysine [compound 7]
Biofilm inhibition rate (P. fluorescens biofilm [1]; [5]): 5%

ε-poly-L-lysine [compound 8]
Biofilm inhibition rate (P. fluorescens biofilm [1]; [6]): 29%

ε-poly-L-lysine [compound 9]
Biofilm inhibition rate (P. fluorescens biofilm [1]; [7]): 45%

ε-poly-L-lysine [compound 10]
Biofilm inhibition rate (P. fluorescens biofilm [1]; [8]): 52%

ε-poly-L-lysine [compound 11]
Biofilm inhibition rate (P. fluorescens biofilm [1]; [9]): 57%

ε-poly-L-lysine [compound 22]
Removal rate of biofilm every contact time (Test example 4) (P. fluorescens biofilm [2]; contact time 1 min): 22% | Removal rate of biofilm every contact time (Test example 4) (P. fluorescens biofilm [2]; contact time 10 min): 38% | Removal rate of biofilm every contact time (Test example 4) (P. fluorescens biofilm [2]; contact time 30 min): 40% | Removal rate of biofilm every contact time (Test example 4) (P. fluorescens biofilm [2]; contact time 60 min): 45% | Removal rate of biofilm every contact time (Test example 3) (P. fluorescens biofilm [3]; contact time 1 min): 87% | Removal rate of biofilm every contact time (Test example 3) (P. fluorescens biofilm [3]; contact time 10 min): 87% | Removal rate of biofilm every contact time (Test example 3) (P. fluorescens biofilm [3]; contact time 30 min): 84% | Removal rate of biofilm every contact time (Test example 3) (P. fluorescens biofilm [3]; contact time 60 min): 83%

ε-poly-L-lysine [compound 25]
Number of viable bacteria in biofilm every contact time ([4]; contact time 1 min): 1200 cfu/well | Number of viable bacteria in biofilm every contact time ([4]; contact time 10 min): 1200 cfu/well | Number of viable bacteria in biofilm every contact time ([4]; contact time 30 min): 1200 cfu/well | Number of viable bacteria in biofilm every contact time ([4]; contact time 60 min): 1200 cfu/well
